{"source": "patent US20200129637A1", "about": "“COMBINATION THERAPY WITH AN ANTI-AXL ANTIBODY-DRUG CONJUGATE” (ADC Therapeutics SA, priority 2017, published 2020)", "origin": "cited, not measured here", "key": {"AXL [1]": {"system": "AXL"}, "AXL [2]": {"system": "AXL", "conditions": "incubation of tumor cells with MEKi"}, "[3]": {"system": "chronic lymphocytic leukaemia cells"}}, "data": [{"compound": "Nc1nc(Nc2ccc3c(c2)CC[C@@H](N2CCCC2)CC3)nn1-c1cc2c(nn1)-c1ccccc1CCC2", "note": "[BGB324]", "values": [{"measurement": "Efficiency of the homologous recombination repair machinery", "setting": "AXL [1]", "result": "diminish the efficiency"}, {"measurement": "Expression of DNA repair genes", "setting": "AXL [1]", "result": "decrease expression of DNA repair genes"}]}, {"compound": "N#CC(=C(/N)Sc1ccccc1N)/C(C#N)=C(\\N)Sc1ccccc1N", "note": "[U0126]", "values": [{"measurement": "AXL on the membrane of tumor cells", "setting": "AXL [2]", "result": "strong accumulation of AXL"}]}, {"compound": "Fludarabine", "values": [{"measurement": "ERCC1 transcription", "setting": "[3]", "result": "suppress ERCC1 transcription"}]}, {"compound": "O=C(NOC[C@H](O)CO)c1ccc(F)c(F)c1Nc1ccc(I)cc1F", "note": "[PD325901]", "values": [{"measurement": "AXL on the membrane of tumor cells", "setting": "AXL [2]", "result": "strong accumulation of AXL"}]}, {"compound": "CN1CCN(Cc2ccc(Nc3ncc(Cl)c(Nc4ccccc4S(=O)(=O)N(C)C)n3)cc2)CC1", "note": "[TP0903]", "values": [{"measurement": "Efficiency of the homologous recombination repair machinery", "setting": "AXL [1]", "result": "diminish the efficiency"}, {"measurement": "Expression of DNA repair genes", "setting": "AXL [1]", "result": "decrease expression of DNA repair genes"}]}]}
